For 12 compounds, IC50 results are on record in patent US7704995B2 (Exelixis, Inc., priority 2003, dated 2010).

For this experiment, the target named is T1, Chk1 (Homo sapiens, UniProt O14757).
T1 construct: purchased Upstate Biotechnology
T1 sequence (O14757 1-476): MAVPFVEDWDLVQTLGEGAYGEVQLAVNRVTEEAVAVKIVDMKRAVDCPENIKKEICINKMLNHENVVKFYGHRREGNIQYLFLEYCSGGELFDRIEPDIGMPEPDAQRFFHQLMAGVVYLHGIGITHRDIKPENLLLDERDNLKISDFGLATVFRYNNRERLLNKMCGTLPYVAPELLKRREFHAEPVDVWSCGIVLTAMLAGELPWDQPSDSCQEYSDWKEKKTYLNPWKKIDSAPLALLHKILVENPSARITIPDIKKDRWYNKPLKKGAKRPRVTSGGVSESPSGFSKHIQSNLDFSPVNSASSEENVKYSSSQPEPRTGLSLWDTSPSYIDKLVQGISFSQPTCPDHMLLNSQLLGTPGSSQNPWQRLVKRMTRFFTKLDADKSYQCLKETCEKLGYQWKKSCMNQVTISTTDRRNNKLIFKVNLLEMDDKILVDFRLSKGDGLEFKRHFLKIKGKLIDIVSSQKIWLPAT
The experiment can be described thus: Chk1 kinase assay: incorporation of γ-33P ATP into immobilized myelin basic protein. The conditions noted are these: Table 11, Chk1 only; class symbols A-D; read-out: Chk1 IC50. It counts as biochemical. The essentials: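 Enzyme activity is measured as γ-33P transfer from ATP onto immobilized MBP over 1 h at room temperature, with Chk1 at 10 nM/10 μM unlabeled ATP and Chk2 at 20 nM/30 μM unlabeled ATP. Compounds are tested in 1% DMSO.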

Structures are written as SMILES. pIC50: −log10 of the molar value. Some results are limits rather than exact numbers.

As to `Nc1ncc(-c2cccc(C(=O)NCc3c(F)ccc(F)c3F)c2)nc1C(=O)N[C@H]1CCNC1` [Example 815, 3-amino-N-[(3S)-pyrrolidin-3-yl]-6-[3-({[(2,3,6-trifluorophenyl)methyl]amino}carbonyl)phenyl]pyrazine-2-carboxamide], the negative logarithm of the IC50 (pIC50) is 6.00 to 7.30. Next, `Nc1ncc(-c2cccc(C(=O)NCc3cc(F)cc(F)c3F)c2)nc1C(=O)N[C@H]1CCNC1` [Example 816, 3-amino-N-[(3S)-pyrrolidin-3-yl]-6-[3-({[(2,3,5-trifluorophenyl)methyl]amino}carbonyl)phenyl]pyrazine-2-carboxamide]: 6.00 to 7.30. For `Nc1ncc(-c2cccc(C(=O)NCc3ccc(F)c(Br)c3)c2)nc1C(=O)N[C@H]1CCNC1` [Example 817, 3-amino-6-[3-({[(3-bromo-4-fluorophenyl)methyl]amino}carbonyl)phenyl]-N-[(3S)-pyrrolidin-3-yl]pyrazine-2-carboxamide], the pIC50 was over 7.30. In the case of `CN1CCCC(c2n[nH]c(-c3nc(-c4cccc(C(=O)NCc5c(F)cccc5Cl)c4)cnc3N)n2)C1` (stereo not drawn) [Example 818, 3-{5-amino-6-[3-(1-methylpiperidin-3-yl)-1H-1,2,4-triazol-5-yl]pyrazin-2-yl}-N-[(2-chloro-6-fluorophenyl)methyl]benzamide], the pIC50 was 5.00 to 6.00. Take `Nc1ncc(-c2cccc(CN[C@H]3CCc4ccccc43)c2)nc1C(=O)NC1CN2CCC1CC2` (stereo partly drawn) [Example 819, 3-amino-N-1-azabicyclo[2.2.2]oct-3-yl-6-(3-{[(1S)-2,3-dihydro-1H-inden-1-ylamino]methyl}phenyl)pyrazine-2-carboxamide]: the pIC50 is 6.00 to 7.30. Regarding `Nc1ncc(-c2cccc(C(=O)NCc3ccc(Cl)cc3F)c2)nc1-c1nc([C@H]2CCCNC2)n[nH]1` [Example 820, 3-(5-amino-6-{3-[(3S)-piperidin-3-yl]-1H-1,2,4-triazol-5-yl}pyrazin-2-yl)-N-[(4-chloro-2-fluorophenyl)methyl]benzamide], the pIC50 is over 7.30. For the compound `Nc1ncc(-c2cccc(C(=O)NCc3ccccc3Cl)c2)nc1-c1nc([C@H]2CCCNC2)n[nH]1` [Example 821, 3-(5-amino-6-{3-[(3S)-piperidin-3-yl]-1H-1,2,4-triazol-5-yl}pyrazin-2-yl)-N-[(2-chlorophenyl)methyl]benzamide], the pIC50 was over 7.30.

With `CC(C)(C)OC(=O)N1CC[C@H](NC(=O)c2nc(-c3cccc(C(=O)NCc4ccc(Cl)cc4Cl)c3)cnc2N)C1` [Example 822, 1,1-dimethylethyl (3S)-3-[({3-amino-6-[3-({[(2,4-dichlorophenyl)methyl]amino}carbonyl)phenyl]pyrazin-2-yl}carbonyl)amino]pyrrolidine-1-carboxylate], the pIC50 was 5.00 to 6.00. Next, `CC(C)(C)OC(=O)N1CC[C@H](NC(=O)c2nc(-c3cccc(C(=O)NCc4ccc(Cl)c(Cl)c4)c3)cnc2N)C1` [Example 823, 1,1-dimethylethyl (3S)-3-[({3-amino-6-[3-({[(3,4-dichlorophenyl)methyl]amino}carbonyl)phenyl]pyrazin-2-yl}carbonyl)amino]pyrrolidine-1-carboxylate]: 5.00 to 6.00; `Nc1ncc(-c2cccc(CN[C@H]3CCc4ccccc43)c2)nc1-c1nc(C2CCCNC2)cs1` (stereo partly drawn) [Example 824, 5-(3-{[(1S)-2,3-dihydro-1H-inden-1-ylamino]methyl}phenyl)-3-(4-piperidin-3-yl-1,3-thiazol-2-yl)pyrazin-2-amine]: at most 5.00.

In the case of `Nc1ncc(-c2cccc(C(=O)NCc3ccc(Cl)cc3Cl)c2)nc1C(=O)N[C@H]1CCNC1` [Example 825, 3-amino-6-[3-({[(2,4-dichlorophenyl)methyl]amino}carbonyl)phenyl]-N-[(3S)-pyrrolidin-3-yl]pyrazine-2-carboxamide], the pIC50 was over 7.30. Next, `Nc1ncc(-c2cccc(C(=O)NCc3ccc(Cl)c(Cl)c3)c2)nc1C(=O)N[C@H]1CCNC1` [Example 826, 3-amino-6-[3-({[(3,4-dichlorophenyl)methyl]amino}carbonyl)phenyl]-N-[(3S)-pyrrolidin-3-yl]pyrazine-2-carboxamide]: over 7.30.
